Where two headings read alike, the source gives them in different places.
Experiments:
[1] = tested on: Drosophila imaginal leg discs; test: Imaginal disc eversion assay; format: cell-based, Drosophila melanogaster; conditions: Drosophila melanogaster, 15 hr incubation in Robb's medium
Method: DihydroMotuporamine C, 4a, was used to develop an imaginal disc assay in Drosophila flies. The imaginal leg discs were collected by microscopic dissection from maggots. […] Inhibition was measured as failure of the disc to fully develop into a fly leg after 15 hr of incubation in Robb's growth medium. This presumably occurs by overactivation of Rho, an important signaling pathway in development. Hyper-stimulation of this pathway is sufficient to block development of the fly leg.
Fly Stocks: 20 female and 5 male wild type Oregon variant of Drosophila melanogaster interbred in blue food medium for 24 hours then flies are removed. Third instar wall-crawling larvae collected then dissected on the sixth day. Flies kept in 25° C. incubation chamber.
Blue Food Preparation: Standard corn meal medium heated then mixed completely with aqueous 1% Bromophenol Blue. The food medium is cooled for one day or more before use.
Dissection Medium: Ringer's Buffer with 10 uL 0.1% BSA. Ringer's Medium consists of 130 mM NaCl, 5 mM KCl, 1.5 mM CaCl2-2H2O, Stored at room temperature (23° C.), BSA added before dissection.
Cultivation Medium: Minimal Robb's Medium with 10 uL 0.1% BSA. Minimal Robb's Medium consists of 40 mM KCl, 0.4 mM KH2PO4, 40 mM NaCl, 0.4 mM NaH2PO4.7H2O, 1.2 mM MgSO4.7H2O, 1.2 mM MgCl2-6H2O, 1 mM CaCl2-2H2O, 10 mM Glucose, 0.2 mM L-asparagine, 4.0 mM L-glutamine, 0.16 mM Glycine, 0.64 mM L-leucine, 0.32 mM L-proline, 0.16 mM R-Serine, 0.64 mM L-valine. Stored at −25° C. One day before dissection, aliquot defrosted in 4° C. Add BSA then warmed to room temperature (23° C.) before dissection.
0.1% BSA: 0.1 g BSA fraction V (Sigma#A-9647) in 10 mL distilled H2O, Stored at 4° C.
Developmental Hormone: 1 mg 20-hydroxyecdysone (Sigma #H-5142) in 1 mL 100% Ethanol. Stored at −25° C. Before use, stock is diluted 10× (1 mL added to 9 mL of 100% Ethanol). 10 μL of diluted 20-hydroxyecdysone is added to culture.
Dissection Procedures: Third instar larvae are removed from cultivation bottle with a wetted brush and washed in dH2O to remove food medium clinging to larvae. The cleaned larvae are dissected in Ringer's Medium using forceps. The imaginal discs are washed in fresh Ringer's Medium, and then cultivated with 1 mL of Robb's Medium in 12-well culture plate. Each culture well should have 30˜40 imaginal discs.
Culturing Procedures: In a larger container, place the 12-well culture plate on a moist towel, then seal the large container. Cultivate at 25° C. for 15 hours. Evaluation: Three categories will be used to grade the eversion of each imaginal disc. Full Eversion—the leg is fully extended from the disc. Partial Eversion—the leg is protruding from the epithelial. No Eversion—no sign of any protrusion.

L1210 cells = test: Cytotoxicity (cell growth, MTT) in L1210 cells; format: cell-based, mouse; conditions: Mus musculus, read-out: L1210 IC50
Text: In terms of Table 1, L1210 cells are mouse leukemia cells and are the gold standard in terms of evaluating polyamine cytotoxicity data due to a plethora of prior data in this cell line for other polyamine structures. Clearly 7a was similar in all respects to 4a (Table 1). […] The lower the Ki value, the higher the affinity of the drug for the polyamine transporter (PAT) on the cell surface. Chinese hamster ovary (CHO) cells and a mutant line without an active PAT (CHO-MG) also evaluated the PAT selectivity of these drugs.
Biological Evaluation. Once synthesized, the conjugates were screened for cytotoxicity in L1210, CHO and CHO-MG cells. L1210 (mouse leukemia) cells were selected to enable comparisons with the published IC50 and Ki values for a variety of polyamine substrates. Chinese Hamster Ovary (CHO) cells were chosen along with a mutant PAT deficient cell line (CHO-MG) in order to comment on selective transport via the PAT (Wang et al, J. Med. Chem. 2003, 46, 2663-2671; Wang et al, J. Med. Chem. 2003, 46, 2672-2682; Wang et al., J. Med. Chem. 2003, 46, 5129-5138; Delcros et al., J. Med. Chem., 2002, 45, 5098-5111).
L1210 IC50 and Ki studies. […] The Ki values in Table 3 were determined for [^14C]spermidine uptake and reflect the affinity of the polyamine derivative for the polyamine transporter on the cell surface. With both parameters, one can determine whether high affinity for the transporter (e.g., low Ki value) translated into high cytotoxicity (e.g., low IC50 value), etc.
Biological studies. Murine leukemia cells (L1210), CHO and CHO-MG cells were grown in RPMI medium supplemented with 10% fetal calf serum, glutamine (2 mM), penicillin (100 U/mL), streptomycin (50 μg/mL). L-Proline (2 μg/mL) was added to the culture medium for CHO-MG cells. Cells were grown at 37° C. under a humidified 5% CO2 atmosphere. Aminoguanidine (AG, 2 mM) was added to the culture medium to prevent oxidation of the drugs by the enzyme (bovine serum amine oxidase) present in calf serum. Trypan blue staining was used to determine cell viability before the initiation of a cytotoxicity experiment. Cells in early to mid log-phase were used. IC50 determinations. Cell growth was assayed in sterile 96-well microtiter plates (Becton-Dickinson, Oxnard, Calif., USA). L1210 cells were seeded at 5e^4 cells/mL of medium (100 μL/well). CHO and CHO-MG cells were plated at 2e^3 cells/mL. Drug solutions (10 μL per well) of appropriate concentration were added at the time of seeding for L1210 cells and after an overnight incubation for the CHO cell lines. After exposure to the drug for 48 hr, cell growth was determined by measuring formazan formation from 3-(4,5-dimethylthiazol-2-yl)2,5-diphenyltetrazolium using a Titertek Multiskan MCC/340 microplate reader for absorbance (540 nm) measurements (Mosmann, T., J. Immunol. Methods 1983, 65, 55-63).

SMILES | inhibition at 18 µM [1] | IC50 (L1210 cells; L1210, in the presence of AG, 48 h at 37° C.) | IC50 (L1210 cells; L1210 experiments, no added SPD) | IC50 (L1210 cells; L1210, 48 h incubation, new data)
NCCCCNCCCCNCc1c2ccccc2cc2ccccc12 [Compound 6b] | 97% | 300 nM | 300 nM | 
CCN(CCCNCCCN)Cc1c2ccccc2cc2ccccc12 [Compound 7a, N-(3-Amino-propyl)-N′-anthracen-9-ylmethyl-N′-ethyl-propane-1,3-diamine] | 95% |  |  | 2200 nM

Reference: patent US20090069441A1, “Motuporamine Mimic Agents” (priority 2006, published 2009)
